Read-outs that look alike come from different tables or passages of the source.

These results are taken from US20180251431A1 (VERTEX PHARMACEUTICALS INCORPORATED, priority 2016, published 2018).

The subject of the experiment is HEK293 cells. Kind of experiment: HEK293 VLCFA-LPC IC50 determination (13C-labeled C26:0 LPC by UHPLC/MS). It is filed as cell-based, human. To be noted: Homo sapiens, average of one or more replicates, read-out: Average HEK293 IC50. The procedure, abridged:
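Suspension HEK293 cells (final 0.5 million/mL after mixing with equal volume) incubated 48 hours with compound plus 13C-acetate (1.0 mg/mL in added media), shaking at 37° C. Lipids extracted with hexane/isopropanol or methanol, C13:0 LPC standard. UHPLC/MS of 13C-labeled C26:0 LPC (638.500/104.100 m/z); IC50 by four-parameter fit.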

Setting [1] is: HEK293, 48 h, 13C-labeled C26:0 LPC, 48 hours.

In general, IC50 refers to the concentration that inhibits the measured activity by half. With `O=C(Nc1ccn(-c2cc(F)cc(F)c2)n1)C1(c2ccccc2)CC1` [Compound 308, N-(1-(3,5-difluorophenyl)-1H-pyrazol-3-yl)-1-phenylcyclopropane-1-carboxamide], the 50% inhibitory concentration (IC50) (HEK293, HEK293 cells) came out at 0.14 µM.
Same read-out and setting: the value for `Cn1cccc1CC(=O)Nc1ccn(-c2ccnc(F)c2)n1` [Compound 309, N-[1-(2-fluoro-4-pyridyl)pyrazol-3-yl]-2-(1-methylpyrrol-2-yl)acetamide] was above 5 µM; that for `Cn1ccnc1CC(=O)Nc1ccn(-c2ccccc2)n1` [Compound 311, 2-(1-methylimidazol-2-yl)-N-(1-phenylpyrazol-3-yl)acetamide] was above 5 µM.
`O=C(Nc1ccn(-c2ccnc(F)c2)n1)C1(c2ccncc2F)CC1` [Compound 313, 1-(3-fluoro-4-pyridyl)-N-[1-(2-fluoro-4-pyridyl)pyrazol-3-yl]cyclopropanecarboxamide]: for the setting “HEK293, HEK293 cells”, the IC50 came to 1.7 µM.
With `COc1ccc(F)c(C2(C(=O)Nc3ccn(-c4ccnc(F)c4)n3)CC2)c1` [Compound 314, 1-(2-fluoro-5-methoxy-phenyl)-N-[1-(2-fluoro-4-pyridyl)pyrazol-3-yl]cyclopropanecarboxamide], the IC50 (HEK293, HEK293 cells) turned out to be 0.057 µM.
On to `O=C(Nc1ccn(-c2ccc(C(F)(F)F)nc2)n1)C1(c2ccccc2F)CC1` [Compound 315, 1-(2-fluorophenyl)-N-(1-(6-(trifluoromethyl)pyridin-3-yl)-1H-pyrazol-3-yl)cyclopropane-1-carboxamide], for which the half-inhibitory concentration (IC50) under setting [1] was above 5 µM.
On the same count and under the same terms, the value for `O=C(Nc1ccn(-c2cncc(C(F)(F)F)c2)n1)C1(c2ccccc2F)CC1` [Compound 316, 1-(2-fluorophenyl)-N-[1-[5-(trifluoromethyl)-3-pyridyl]pyrazol-3-yl]cyclopropanecarboxamide] was above 5 µM.
As to `COc1ncccc1-n1ccc(NC(=O)C2(c3ccccc3F)CC2)n1` [Compound 317, 1-(2-fluorophenyl)-N-[1-(2-methoxy-3-pyridyl)pyrazol-3-yl]cyclopropanecarboxamide], the IC50 under setting [1] is above 5 µM.
With `N#Cc1cncc(-n2ccc(NC(=O)C3(c4ccccc4F)CC3)n2)c1` [Compound 318, N-[1-(5-cyano-3-pyridyl)pyrazol-3-yl]-1-(2-fluorophenyl)cyclopropanecarboxamide], under setting [1], the IC50 is above 5 µM.
Same read-out and setting: the value for `COc1ccc(-n2ccc(NC(=O)C3(c4ccccc4F)CC3)n2)cn1` [Compound 319, 1-(2-fluorophenyl)-N-(1-(6-methoxypyridin-3-yl)-1H-pyrazol-3-yl)cyclopropane-1-carboxamide] was 0.058 µM; that for `N#Cc1ncccc1-n1ccc(NC(=O)C2(c3ccccc3F)CC2)n1` [Compound 320, N-[1-(2-cyano-3-pyridyl)pyrazol-3-yl]-1-(2-fluorophenyl)cyclopropanecarboxamide] was above 5 µM.
On the same count and under the same terms, the value for `COc1cc(-n2ccc(NC(=O)C3(c4ccccc4F)CC3)n2)cc(OC)c1OC` [Compound 321, 1-(2-fluorophenyl)-N-[1-(3,4,5-trimethoxyphenyl)pyrazol-3-yl]cyclopropanecarboxamide] was above 5 µM.
The same measure, in the same setting: the value for `COc1ccc(-n2ccc(NC(=O)C3(c4ccccc4F)CC3)n2)cc1F` [Compound 322, N-[1-(3-fluoro-4-methoxy-phenyl)pyrazol-3-yl]-1-(2-fluorophenyl)cyclopropanecarboxamide] was 4 µM.
In the case of `Cc1cncc(-n2ccc(NC(=O)C3(c4ccccc4F)CC3)n2)c1` [Compound 323, 1-(2-fluorophenyl)-N-[1-(5-methyl-3-pyridyl)pyrazol-3-yl]cyclopropanecarboxamide], the half-maximal inhibitory concentration (IC50) under setting [1] turned out to be 0.35 µM.
With `O=C(Nc1ccn(-c2ccnc(C(F)(F)F)c2)n1)C1(c2ccccc2F)CC1` [Compound 324, 1-(2-fluorophenyl)-N-(1-(2-(trifluoromethyl)pyridin-4-yl)-1H-pyrazol-3-yl)cyclopropane-1-carboxamide], the half-maximal inhibitory concentration (IC50) under setting [1] is above 5 µM.
In the case of `O=C(Nc1ccn(-c2cncc(Cl)c2)n1)C1(c2ccccc2F)CC1` [Compound 325, N-[1-(5-chloro-3-pyridyl)pyrazol-3-yl]-1-(2-fluorophenyl)cyclopropanecarboxamide], the IC50 under setting [1] amounted to 0.073 µM.
Same read-out and setting: the value for `N#Cc1ccc(-n2ccc(NC(=O)C3(c4ccccc4F)CC3)n2)cn1` [Compound 326, N-[1-(6-cyano-3-pyridyl)pyrazol-3-yl]-1-(2-fluorophenyl)cyclopropanecarboxamide] was above 5 µM; that for `COc1cncc(C#N)c1-n1ccc(NC(=O)C2(c3ccccc3F)CC2)n1` [Compound 327, N-[1-(3-cyano-5-methoxy-4-pyridyl)pyrazol-3-yl]-1-(2-fluorophenyl)cyclopropanecarboxamide] was above 5 µM; that for `O=C(Nc1ccn(-c2ccncc2C(F)(F)F)n1)C1(c2ccccc2F)CC1` [Compound 328, 1-(2-fluorophenyl)-N-[1-[3-(trifluoromethyl)-4-pyridyl]pyrazol-3-yl]cyclopropanecarboxamide] was above 5 µM.
For `N#Cc1cc(-n2ccc(NC(=O)C3(c4ccccc4F)CC3)n2)ccn1` [Compound 329, N-[1-(2-cyano-4-pyridyl)pyrazol-3-yl]-1-(2-fluorophenyl)cyclopropanecarboxamide], under setting [1], the half-maximal inhibitory concentration (IC50) was 3.6 µM.
Same read-out and setting: the value for `COc1nccc(-n2ccc(NC(=O)C3(c4ccccc4F)CC3)n2)n1` [Compound 330, 1-(2-fluorophenyl)-N-[1-(2-methoxypyrimidin-4-yl)pyrazol-3-yl]cyclopropanecarboxamide] was 0.26 µM.
As to `Cc1nccc(-n2ccc(NC(=O)C3(c4ccccc4F)CC3)n2)n1` [Compound 331, 1-(2-fluorophenyl)-N-[1-(2-methylpyrimidin-4-yl)pyrazol-3-yl]cyclopropanecarboxamide], the concentration for half-maximal inhibition (IC50) under setting [1] was above 5 µM.
The same measure, in the same setting: the value for `O=C(Nc1ccn(-c2ccncc2Cl)n1)C1(c2ccccc2F)CC1` [Compound 333, N-[1-(3-chloro-4-pyridyl)pyrazol-3-yl]-1-(2-fluorophenyl)cyclopropanecarboxamide] was 0.95 µM.
Consider `CC(C)(O)c1cc(-n2ccc(NC(=O)C3(c4ccccc4F)CC3)n2)ccn1` [Compound 334, 1-(2-fluorophenyl)-N-[1-[2-(1-hydroxy-1-methyl-ethyl)-4-pyridyl]pyrazol-3-yl]cyclopropanecarboxamide], for which the IC50 under setting [1] was above 5 µM.
Regarding `N#Cc1cnccc1-n1ccc(NC(=O)C2(c3ccccc3F)CC2)n1` [Compound 335, N-[1-(3-cyano-4-pyridyl)pyrazol-3-yl]-1-(2-fluorophenyl)cyclopropanecarboxamide], the IC50 under setting [1] is above 5 µM.
On the same count and under the same terms, the value for `COc1nccc(-n2ccc(NC(=O)C3(c4ccccc4F)CC3)n2)c1C#N` [Compound 336, N-[1-(3-cyano-2-methoxy-4-pyridyl)pyrazol-3-yl]-1-(2-fluorophenyl)cyclopropanecarboxamide] was above 5 µM.
Consider `Cc1cc(-n2ccc(NC(=O)C3(c4ccccc4F)CC3)n2)nc(C)n1` [Compound 337, N-[1-(2,6-dimethylpyrimidin-4-yl)pyrazol-3-yl]-1-(2-fluorophenyl)cyclopropanecarboxamide], for which the 50% inhibitory concentration (IC50) under setting [1] was above 5 µM.
Still for that read-out and setting: the value for `COc1ncc(-n2ccc(NC(=O)C3(c4ccccc4F)CC3)n2)cn1` [Compound 338, 1-(2-fluorophenyl)-N-[1-(2-methoxylpyrimidin-5-yl)pyrazol-3-yl]cyclopropanecarboxamide] was above 5 µM.
